From publication PMC11672299, “Conjugation of Polycationic Peptides Extends the Efficacy Spectrum of β‐Lactam Antibiotics” (Advanced Science, 2024)
Square brackets hold non-standard residues; d marks the D form. Peptide text beside a SMILES is read from it. * marks the point of attachment. X1 = CC(C)(O/N=C(\C(=O)N[C@@H]1C(=O)N2C(C(=O)[O-])=C(C[n+]3ccccc3)CS[C@H]12)c1csc(N)n1)C(=O)NCCCCCCN1C(=O)CC(*)C1=O; X2 = C[C@H]1[C@H](NC(=O)/C(=N\OC(C)(C)C(=O)NCCCCCCN2C(=O)CC(*)C2=O)c2csc(N)n2)C(=O)N1S(=O)(=O)O

tested on: B. subtilis DSM 10; assay: microbe, parasite or virus in culture; format: cell-based; settings: B. subtilis DSM 10; median (n = 3)
Protocol: The minimum inhibitory concentration (MIC) of the β‐lactam–peptide conjugates was determined by broth microdilution as previously described.^[ [17] ^] Briefly, in cation‐adjusted MHB II medium, a twofold serial dilution of the compounds was prepared in 96‐well round‐bottom polystyrene or polypropylene microtiter plates with each well containing 50 µL. The plates were inoculated with 50 µL bacterial suspension and the final inoculum, in a total volume of 100 µL, contained 5 × 10^5 CFU mL^−1. The microplates were incubated for 20 h at 37 ± 1 °C. The lowest concentration preventing visible bacterial growth was considered the MIC value. For susceptibility testing of combinations of β‐lactamase‐inhibitors with either a β‐lactam antibiotic or a β‐lactam–peptide conjugate, fixed concentrations of the inhibitors according to the EUCAST (European Committee on Antimicrobial Susceptibility Testing) guidelines (clavulanic acid = 2 mg L^−1, avibactam = 4 mg L^−1) were used.

SMILES | MIC [µg/mL]
C[C@H]1[C@H](NC(=O)/C(=N\OC(C)(C)C(=O)NCCCCCCN2C(=O)CC(SC[C@H](NC(=O)[C@H](CCCNC(=N)N)NC(=O)[C@H](CCCNC(=N)N)NC(=O)[C@H](CCCNC(=N)N)NC(=O)[C@H](CCCNC(=N)N)NC(=O)[C@H](CCCNC(=N)N)NC(=O)[C@H](CCCNC(=N)N)NC(=O)[C@H](N)Cc3ccc(O)cc3)C(N)=O)C2=O)c2csc(N)n2)C(=O)N1S(=O)(=O)O (some centres unmarked) [AZT-yR6] (H-[dY]RRRRRRC(X2)-NH2; N-terminus assumed) | 1

same assay, conditions: Bacillus subtilis, DSM10; B. subtilis DSM 10; median (n = 3); read-out: MIC

SMILES | MIC [µg/mL]
C[C@@H](O)[C@H]1C(=O)N2C(C(=O)O)=C(S[C@@H]3CN[C@H](C(=O)Nc4cccc(C(=O)O)c4)C3)[C@H](C)[C@H]12 [ERT, ertapenem, reference compound] | 0.5

same assay, conditions: DSM 10, 20 h

SMILES | MIC [µg/mL]
C[C@H]1[C@H](NC(=O)/C(=N\OC(C)(C)C(=O)NCCCCCCN2C(=O)CC(SC[C@H](NC(=O)[C@H](CCCNC(=N)N)NC(=O)[C@H](CCCNC(=N)N)NC(=O)[C@H](CCCNC(=N)N)NC(=O)[C@H](CCCNC(=N)N)NC(=O)[C@H](CCCNC(=N)N)NC(=O)[C@H](CCCNC(=N)N)NC(=O)[C@H](CCCNC(=N)N)NC(=O)[C@H](CCCNC(=N)N)NC(=O)[C@@H](N)CCCNC(=N)N)C(N)=O)C2=O)c2csc(N)n2)C(=O)N1S(=O)(=O)O (some centres unmarked) [AZT-R9] | 0.5
C[C@H]1[C@H](NC(=O)/C(=N\OC(C)(C)C(=O)NCCCCCCN2C(=O)CC(SC[C@H](NC(=O)[C@H](CCCNC(=N)N)NC(=O)[C@H](CCCNC(=N)N)NC(=O)[C@@H](N)CCCNC(=N)N)C(N)=O)C2=O)c2csc(N)n2)C(=O)N1S(=O)(=O)O (some centres unmarked) [AZT-R3] | 1
CC(C)(O/N=C(\C(=O)N[C@@H]1C(=O)N2C(C(=O)[O-])=C(C[n+]3ccccc3)CS[C@H]12)c1csc(N)n1)C(=O)NCCCCCCN1C(=O)CC(SC[C@H](NC(=O)[C@H](CCCCN)NC(=O)[C@H](CCCCN)NC(=O)[C@H](CCCCN)NC(=O)[C@H](CCCNC(=N)N)NC(=O)[C@H](CCCNC(=N)N)NC(=O)[C@@H](N)CCCNC(=N)N)C(N)=O)C1=O (some centres unmarked) [CTZ-R3K3] (H-RRRKKKC(X1)-NH2; N-terminus assumed) | 0.008
CC(C)(O/N=C(\C(=O)N[C@@H]1C(=O)N2C(C(=O)[O-])=C(C[n+]3ccccc3)CS[C@H]12)c1csc(N)n1)C(=O)NCCCCCCN1C(=O)CC(SC[C@H](NC(=O)[C@H](CCCNC(=N)N)NC(=O)CNC(=O)[C@H](CCCNC(=N)N)NC(=O)CNC(=O)[C@H](CCCNC(=N)N)NC(=O)CN)C(N)=O)C1=O (some centres unmarked) [CTZ-(GR)3] (H-GRGRGRC(X1)-NH2; N-terminus assumed) | 0.06
C[C@H]1[C@H](NC(=O)/C(=N\OC(C)(C)C(=O)NCCCCCCN2C(=O)CC(SC[C@H](NC(=O)[C@@H](N)CCCNC(=N)N)C(N)=O)C2=O)c2csc(N)n2)C(=O)N1S(=O)(=O)O (some centres unmarked) [AZT-R1] | 16
C[C@H]1[C@H](NC(=O)/C(=N\OC(C)(C)C(=O)NCCCCCCN2C(=O)CC(SC[C@H](NC(=O)[C@H](CCCCN)NC(=O)[C@H](CCCCN)NC(=O)[C@H](CCCCN)NC(=O)[C@H](CCCCN)NC(=O)[C@H](CCCCN)NC(=O)[C@H](CCCCN)NC(=O)[C@H](CCCCN)NC(=O)[C@H](CCCCN)NC(=O)[C@@H](N)CCCCN)C(N)=O)C2=O)c2csc(N)n2)C(=O)N1S(=O)(=O)O (some centres unmarked) [AZT-K9] (H-KKKKKKKKKC(X2)-NH2; N-terminus assumed) | 0.1
C[C@H]1[C@H](NC(=O)/C(=N\OC(C)(C)C(=O)NCCCCCCN2C(=O)CC(SC[C@H](NC(=O)[C@H](CCCCN)NC(=O)[C@H](CCCCN)NC(=O)[C@H](CCCCN)NC(=O)[C@H](CCCCN)NC(=O)[C@H](CCCCN)NC(=O)[C@H](CCCCN)NC(=O)[C@H](CCCCN)NC(=O)[C@H](CCCCN)NC(=O)[C@H](CCCCN)NC(=O)[C@H](CCCCN)NC(=O)[C@H](CCCCN)NC(=O)[C@@H](N)CCCCN)C(N)=O)C2=O)c2csc(N)n2)C(=O)N1S(=O)(=O)O (some centres unmarked) [AZT-K12] (H-KKKKKKKKKKKKC(X2)-NH2; N-terminus assumed) | 0.06
CC(C)(O/N=C(\C(=O)N[C@@H]1C(=O)N2C(C(=O)[O-])=C(C[n+]3ccccc3)CS[C@H]12)c1csc(N)n1)C(=O)NCCCCCCN1C(=O)CC(SC[C@H](NC(=O)[C@H](CCCCN)NC(=O)[C@H](CCCCN)NC(=O)[C@H](CCCCN)NC(=O)[C@H](CCCCN)NC(=O)[C@H](CCCCN)NC(=O)[C@H](CCCCN)NC(=O)[C@H](CCCCN)NC(=O)[C@H](CCCCN)NC(=O)[C@H](CCCCN)NC(=O)[C@H](CCCCN)NC(=O)[C@H](CCCCN)NC(=O)[C@@H](N)CCCCN)C(N)=O)C1=O (some centres unmarked) [CTZ-K12] (H-KKKKKKKKKKKKC(X1)-NH2) | 0.02
C[C@H]1[C@H](NC(=O)/C(=N\OC(C)(C)C(=O)NCCCCCCN2C(=O)CC(SC[C@H](NC(=O)[C@H](CCCCN)NC(=O)[C@H](CCCCN)NC(=O)[C@@H](N)CCCCN)C(N)=O)C2=O)c2csc(N)n2)C(=O)N1S(=O)(=O)O (some centres unmarked) [AZT-K3] | 8
CC(C)(O/N=C(\C(=O)N[C@@H]1C(=O)N2C(C(=O)[O-])=C(C[n+]3ccccc3)CS[C@H]12)c1csc(N)n1)C(=O)NCCCCCCN1C(=O)CC(SC[C@H](NC(=O)CNC(=O)CNC(=O)CNC(=O)CNC(=O)CNC(=O)CN)C(N)=O)C1=O (some centres unmarked) [CTZ-G6] (H-GGGGGGC(X1)-NH2; N-terminus assumed) | 8
C[C@H]1[C@H](NC(=O)/C(=N\OC(C)(C)C(=O)NCCCCCCN2C(=O)CC(SC[C@H](NC(=O)[C@H](CCCCN)NC(=O)[C@H](CCCCN)NC(=O)[C@H](CCCCN)NC(=O)[C@H](CCCCN)NC(=O)[C@H](CCCCN)NC(=O)[C@@H](N)CCCCN)C(N)=O)C2=O)c2csc(N)n2)C(=O)N1S(=O)(=O)O (some centres unmarked) [AZT-K6] (H-KKKKKKC(X2)-NH2; N-terminus assumed) | 0.25
CC(C)(O/N=C(\C(=O)N[C@@H]1C(=O)N2C(C(=O)[O-])=C(C[n+]3ccccc3)CS[C@H]12)c1csc(N)n1)C(=O)NCCCCCCN1C(=O)CC(SC[C@H](NC(=O)[C@H](CCCNC(=N)N)NC(=O)[C@H](CCCCN)NC(=O)[C@H](CCCNC(=N)N)NC(=O)[C@H](CCCCN)NC(=O)[C@H](CCCNC(=N)N)NC(=O)[C@@H](N)CCCCN)C(N)=O)C1=O (some centres unmarked) [CTZ-(KR)3] (H-KRKRKRC(X1)-NH2; N-terminus assumed) | 0.008
CC(C)(O/N=C(\C(=O)N[C@@H]1C(=O)N2C(C(=O)[O-])=C(C[n+]3ccccc3)CS[C@H]12)c1csc(N)n1)C(=O)NCCCCCCN1C(=O)CC(SC[C@H](NC(=O)[C@H](CCCNC(=N)N)NC(=O)[C@H](CCCNC(=N)N)NC(=O)[C@@H](N)CCCNC(=N)N)C(N)=O)C1=O (some centres unmarked) [CTZ-R3] | 0.06
C[C@H]1[C@H](NC(=O)/C(=N\OC(C)(C)C(=O)NCCCCCCN2C(=O)CC(SC[C@H](NC(=O)[C@H](CCCNC(=N)N)NC(=O)[C@H](CCCCN)NC(=O)[C@H](CCCNC(=N)N)NC(=O)[C@H](CCCCN)NC(=O)[C@H](CCCNC(=N)N)NC(=O)[C@@H](N)CCCCN)C(N)=O)C2=O)c2csc(N)n2)C(=O)N1S(=O)(=O)O (some centres unmarked) [AZT-(KR)3] (H-KRKRKRC(X2)-NH2; N-terminus assumed) | 0.06
CC(C)(O/N=C(\C(=O)N[C@@H]1C(=O)N2C(C(=O)[O-])=C(C[n+]3ccccc3)CS[C@H]12)c1csc(N)n1)C(=O)NCCCCCCN1C(=O)CC(SC[C@H](NC(=O)[C@@H](N)CCCNC(=N)N)C(N)=O)C1=O (some centres unmarked) [CTZ-R1] | 1
C[C@H]1[C@H](NC(=O)/C(=N\OC(C)(C)C(=O)NCCCCCCN2C(=O)CC(SC[C@H](NC(=O)[C@H](CCC(=O)O)NC(=O)[C@H](CCC(=O)O)NC(=O)[C@H](CCC(=O)O)NC(=O)[C@H](CCC(=O)O)NC(=O)[C@H](CCC(=O)O)NC(=O)[C@@H](N)CCC(=O)O)C(N)=O)C2=O)c2csc(N)n2)C(=O)N1S(=O)(=O)O (some centres unmarked) [AZT-E6] | > 64
C[C@H]1[C@H](NC(=O)/C(=N\OC(C)(C)C(=O)NCCCCCCN2C(=O)CC(SC[C@H](NC(=O)CNC(=O)CNC(=O)CNC(=O)CNC(=O)CNC(=O)CN)C(N)=O)C2=O)c2csc(N)n2)C(=O)N1S(=O)(=O)O (some centres unmarked) [AZT-G6] (H-GGGGGGC(X2)-NH2; N-terminus assumed) | 64
C[C@H]1[C@H](NC(=O)/C(=N\OC(C)(C)C(=O)NCCCCCCN2C(=O)CC(SC[C@H](NC(=O)[C@H](CCCNC(=N)N)NC(=O)[C@H](CCCNC(=N)N)NC(=O)[C@H](CCCNC(=N)N)NC(=O)[C@H](CCCNC(=N)N)NC(=O)[C@H](CCCNC(=N)N)NC(=O)[C@H](CCCNC(=N)N)NC(=O)[C@H](CCCNC(=N)N)NC(=O)[C@H](CCCNC(=N)N)NC(=O)[C@H](CCCNC(=N)N)NC(=O)[C@H](CCCNC(=N)N)NC(=O)[C@H](CCCNC(=N)N)NC(=O)[C@@H](N)CCCNC(=N)N)C(N)=O)C2=O)c2csc(N)n2)C(=O)N1S(=O)(=O)O (some centres unmarked) [AZT-R12] | 1
C[C@H]1[C@H](NC(=O)/C(=N\OC(C)(C)C(=O)NCCCCCCN2C(=O)CC(SC[C@H](NC(=O)[C@H](CCCNC(=N)N)NC(=O)CNC(=O)[C@H](CCCNC(=N)N)NC(=O)CNC(=O)[C@H](CCCNC(=N)N)NC(=O)CN)C(N)=O)C2=O)c2csc(N)n2)C(=O)N1S(=O)(=O)O (some centres unmarked) [AZT-(GR)3] (H-GRGRGRC(X2)-NH2; N-terminus assumed) | 1
C[C@H]1[C@H](NC(=O)/C(=N\OC(C)(C)C(=O)NCCCCCCN2C(=O)CC(SC[C@H](NC(=O)[C@@H](N)CCCCN)C(N)=O)C2=O)c2csc(N)n2)C(=O)N1S(=O)(=O)O (some centres unmarked) [AZT-K1] | 16
C[C@H]1[C@H](NC(=O)/C(=N\OC(C)(C)C(=O)NCCCCCCN2C(=O)CC(SC[C@H](NC(=O)[C@H](CCCCN)NC(=O)[C@H](CCCCN)NC(=O)[C@H](CCCCN)NC(=O)[C@H](CCCNC(=N)N)NC(=O)[C@H](CCCNC(=N)N)NC(=O)[C@@H](N)CCCNC(=N)N)C(N)=O)C2=O)c2csc(N)n2)C(=O)N1S(=O)(=O)O (some centres unmarked) [AZT-R3K3] (H-RRRKKKC(X2)-NH2; N-terminus assumed) | 0.06
